Values quoted from earlier work as cited in US12508236B2, “Solid nanoparticle with inorganic coating” (Nanexa AB, priority 2013, dated 2025).
“Also recorded” adds a separate entry of the source.

solubility in heptane (heptane)	SMILES	water solubility
–	CCOC(=O)C1=C(C)NC(C)=C(C(=O)OC)C1c1cccc(Cl)c1Cl (racemic) [Felodipine, (RS)-3-ethyl 5-methyl 4-(2,3-dichlorophenyl)-2,6-dimethyl-1,4-dihydropyridine-3,5-dicarboxylate]	very low water solubility
low solubility	CC(=O)Nc1ccc(O)cc1 [Paracetamol, N-(4-hydroxifenyl)acetamid]	high water solubility; also recorded: very water soluble
